Test results as given in US20220259656A1, “BLOOD BIOMARKER AND GENETIC MARKERS ASSOCIATED WITH RESPONSE TO CRTH2 RECEPTOR ANTAGONISTS” (Merck Sharp & Dohme Corp., priority 2019, published 2022).

Legend:
[1] = test system: participants with persistent asthma uncontrolled on montelukast, positive for C allele of rs12748961 SNP; test: Randomized, placebo-controlled, double-blind clinical study of Compound A added to montelukast; change from baseline in FEV1; format: in vivo, human; conditions: for Average Change From Baseline FEV1 (L), Mean: Cmpd A 150 mg + ML
Method: The inventors conducted a world-wide, randomized, placebo-controlled, double-blind, parallel group study of the CRTH2 receptor antagonist, {(7R)-4-fluoro-7-[5-(4-fluorobenzyl)-1H-[1,2,3]triazol-1-yl]-6,7,8,9-tetrahydropyrido[1,2-a]indol-10-yl}-acetic acid (hereinafter “Compound A”) in participants with persistent asthma who remained uncontrolled while being maintained on montelukast (ML). At Prescreening Visit 1, participants were tested for the presence of the rs 12748961 SNP to determine eligibility. The primary efficacy analysis compared the effect of Compound A to placebo, when each was added to montelukast, on the average change from baseline in FEV1 using a constrained longitudinal data analysis model.
Eligible participants were male and female participants between the ages of 18 and 65 with persistent asthma for at least 1 year and a documented SNP+test result. Participants also must have had acceptable lung function at Visit 2 and Visit 4 and evidence of reversibility of airway obstruction. Approximately 139 eligible participants whose asthma was uncontrolled during a run-in period of approximately 2 to 4 weeks entered a 6-week double-blind treatment period and were randomized in a 1:1 ratio to receive either Compound A 150 mg and montelukast 10 mg or Compound A 150 mg matching-image placebo and montelukast 10 mg. Randomization was stratified according to the number of C alleles (having either 1 or 2 copies of the allele) at the rs12748961 SNP. The total study duration for each participant was up to 17 weeks.
FIG. 2 is a graphical depiction of the study design. Briefly, salient activities occurring during the study are described below. During a pre-screening visit, a blood sample is collected to assess for the presence of the C-allele of rs12748961 SNP. At the start of the pre-study period, eligible subjects receiving Long-Acting Beta-Agonist (LABA) therapy were asked to discontinue the LABA. During run-in period (approximately 2 to 4 weeks), subjects receive single-blind Compound A 150 mg matching-image placebo and open-label montelukast 10 mg. Subjects taking asthma controller therapies prior to Visit 2 were asked to discontinue or taper off these pre-study medications before randomization while receiving open-label montelukast 10 mg. During the treatment period (approximately 6 weeks): Subjects received double-blind treatment of Compound A 150 mg plus montelukast 10 mg; or Compound A 150 mg matching-image placebo plus montelukast 10 mg.
In order to identify patient groups susceptible to treatment response, the inventors conducted an analysis on pre-specified patient subgroups in the study based on (a) demographic variables (including age, gender, race, weight, height, and body mass index) and (b) baseline characteristics (including duration of asthma, age diagnosed of asthma, asthma controller pre- trial, ICS use, blood eosinophil count, baseline ACQ-6, and smoking history), (c) prior and secondary diagnoses, (d) prior and concomitant therapies, and (e) the number of C alleles of the rs12748961 SNP on asthmatic study subjects who had undergone a clinical trial with a CRTH2 receptor antagonist and the leukotriene antagonist montelukast. The analysis sought to assess whether a mean treatment difference varies across patient subgroups defined by several pre-specified characteristics and who also tested positive for at least one copy of the C allele of the rs12748961 SNP.

allergic rhinitis = conditions: in vivo; cited from earlier work
[2] = test system: patient population afflicted with eosinophilic severe asthma; conditions: patients with eosinophilic severe asthma, Phase IIa; cited from earlier work
[3] = Cmpd A 150 mg + montelukast 10 mg, full study population

O=C(O)Cc1c2n(c3c(F)cccc13)C[C@H](n1nncc1Cc1ccc(F)cc1)CC2 [Compound A, {(7R)-4-fluoro-7-[5-(4-fluorobenzyl)-1H-[1,2,3]triazol-1-yl]-6,7,8,9-tetrahydropyrido[1,2-a]indol-10-yl}-acetic acid]
Estimated Differences with placebo + ML, Difference in LS Means, FEV1 at Week 4 and Week 6 ([1]; Cmpd A 150 mg + ML vs. placebo + ML, full study population): 107 mL | Estimated Differences With Placebo + ML, LS Mean, FEV1 ([1]; Cmpd A 150 mg + ML vs. placebo + ML, subgroup baseline eosinophil count <0.30 × 10^9/L): 63 mL | Estimated Differences With Placebo + ML, LS Mean, FEV1 ([1]; Cmpd A 150 mg + ML vs. placebo + ML, subgroup baseline eosinophil count >0.30 × 10^9/L): 193 mL | Average Change From Baseline FEV1 (L), Mean ([1]; subgroup baseline eosinophil count <0.30 × 10^9/L): 0.166 L | Average Change From Baseline FEV1 (L), Mean ([1]; subgroup baseline eosinophil count >0.30 × 10^9/L): 0.139 L | Average Change from Baseline in FEV1 (L) at Week 4 and Week 6, Mean [1, 3]: 0.156 L | Average Change from Baseline in FEV1 (L) at Week 4 and Week 6, Median [1, 3]: 0.091 L | FEV1 (L) Average at Week 4 and Week 6, Mean ([1]; Cmpd A 150 mg + montelukast 10 mg, full study population, 6-week treatment): 2.426 L | Average Change from Baseline in FEV1 (L) at Week 4 and Week 6, LS Mean ([1]; Cmpd A 150 mg + montelukast 10 mg, full study population, cLDA model): 0.152 L

O=C(O)CCn1c2c(c3ccccc31)C[C@H](NS(=O)(=O)c1ccc(F)cc1)CC2 [Ramatroban, 3-((3R)-3-{[(4-fluorophenyl)sulfonyl]amino}-1,2,3,4-tetrahydro-9H-carbazol-9-yl)propanoic acid]
efficacy in allergic rhinitis (allergic rhinitis): some degree of efficacy

Cc1c(CC(=O)O)c2cccnc2n1Cc1ccc(S(C)(=O)=O)cc1C(F)(F)F [fevipiprant, 2-(2-methyl-1-(4-(methylsulfonyl)-2-(trifluoromethyl)benzyl)-1H-pyrrolo[2,3-b]pyridin-3-yl)acetic acid]
sputum eosinophils [2]: reduction of sputum eosinophils
